Drawing on ChEMBL document CHEMBL1201862, “PubChem BioAssay data set” (2004), this text covers EC50 and AC50 for 31 molecules.

Activity calls are given as the source filed them. Cut-off read from the data, not from the text of the source, for most assays here: actives have a measured EC50 and inactives only a lower limit. Some results are limits rather than exact numbers.

Usually EC50 stands for the midpoint of the concentration-response curve. In general, AC50 refers to the concentration giving half of the maximal activity seen.

One assay deals with T1, Streptokinase A (Streptococcus pyogenes serotype M1, UniProt P10520).
T1 sequence (P10520 whole entry): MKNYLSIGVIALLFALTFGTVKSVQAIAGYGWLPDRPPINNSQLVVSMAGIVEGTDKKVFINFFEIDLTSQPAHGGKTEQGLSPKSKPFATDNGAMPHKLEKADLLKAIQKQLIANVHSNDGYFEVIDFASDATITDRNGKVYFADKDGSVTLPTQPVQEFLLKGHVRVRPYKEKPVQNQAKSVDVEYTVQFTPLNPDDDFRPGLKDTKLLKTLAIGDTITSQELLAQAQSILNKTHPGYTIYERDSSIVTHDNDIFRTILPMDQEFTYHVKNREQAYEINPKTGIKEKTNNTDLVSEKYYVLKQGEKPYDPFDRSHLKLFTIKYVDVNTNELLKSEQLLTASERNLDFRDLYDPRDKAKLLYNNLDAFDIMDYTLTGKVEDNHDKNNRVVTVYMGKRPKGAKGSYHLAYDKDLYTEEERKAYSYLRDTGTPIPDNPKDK
Description: S. pyogenes streptokinase expression inhibitors, potency, dose response, plasminogen activation absorbance, OD405 (AID 1914).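 Note: secreted streptokinase activity via plasminogen activation per viability signal from cell pellet.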 The assay is classed as functional, Streptococcus pyogenes M1 GAS.

The test system of the next assay is Streptococcus. Put plainly: Group A Streptococcus viability loss, dose response, counter-screen for streptokinase expression inhibitor project, luminescence, BacTiterGlo (AID 1915).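 Note: potency for reduction of bacterial viability or growth.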 The assay is classed as functional, organism-based.
Assay [1] addresses T2, Heat shock factor protein 1 (Mus musculus, UniProt P38532).
T2 sequence (P38532 whole entry): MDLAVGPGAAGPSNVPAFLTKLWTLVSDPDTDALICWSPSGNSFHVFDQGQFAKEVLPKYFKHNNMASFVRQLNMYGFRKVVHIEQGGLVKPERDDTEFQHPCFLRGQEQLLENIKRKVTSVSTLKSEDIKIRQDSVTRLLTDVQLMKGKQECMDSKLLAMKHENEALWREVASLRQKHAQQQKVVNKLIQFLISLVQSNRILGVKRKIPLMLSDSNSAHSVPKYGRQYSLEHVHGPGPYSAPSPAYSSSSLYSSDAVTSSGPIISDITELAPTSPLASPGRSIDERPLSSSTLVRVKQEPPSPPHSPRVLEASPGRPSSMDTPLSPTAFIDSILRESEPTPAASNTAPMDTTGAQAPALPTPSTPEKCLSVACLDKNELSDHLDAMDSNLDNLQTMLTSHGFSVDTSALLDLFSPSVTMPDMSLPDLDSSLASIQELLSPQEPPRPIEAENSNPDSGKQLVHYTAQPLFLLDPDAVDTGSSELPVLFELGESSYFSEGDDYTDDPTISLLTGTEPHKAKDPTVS
Put plainly: inhibition of MG132-induced HSE-luciferase signal, confirmation, cell-based, NIH3T3, luminescence, dose retest (AID 2382).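 Note: NIH3T3 fibroblasts with HSF1-driven luciferase reporter stressed by proteasome inhibitor MG132; luminescence from HSF1-driven luciferase expression after 8 hours of MG132 stress.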 The class given is functional.

The test system of assay [2] is Streptococcus sp. 'group A'. Put plainly: growth inhibition of control SK(-) GAS strain, dose response, counter-screen for streptokinase expression inhibitor project, luminescence, kanamycin, BacTiterGlo, confirmation (AID 1900). The class given is functional, organism-based.
For a further assay, the target named is T3, Protein RecA (Mycobacterium tuberculosis, UniProt P9WHJ3).
T3 sequence (P9WHJ3 whole entry): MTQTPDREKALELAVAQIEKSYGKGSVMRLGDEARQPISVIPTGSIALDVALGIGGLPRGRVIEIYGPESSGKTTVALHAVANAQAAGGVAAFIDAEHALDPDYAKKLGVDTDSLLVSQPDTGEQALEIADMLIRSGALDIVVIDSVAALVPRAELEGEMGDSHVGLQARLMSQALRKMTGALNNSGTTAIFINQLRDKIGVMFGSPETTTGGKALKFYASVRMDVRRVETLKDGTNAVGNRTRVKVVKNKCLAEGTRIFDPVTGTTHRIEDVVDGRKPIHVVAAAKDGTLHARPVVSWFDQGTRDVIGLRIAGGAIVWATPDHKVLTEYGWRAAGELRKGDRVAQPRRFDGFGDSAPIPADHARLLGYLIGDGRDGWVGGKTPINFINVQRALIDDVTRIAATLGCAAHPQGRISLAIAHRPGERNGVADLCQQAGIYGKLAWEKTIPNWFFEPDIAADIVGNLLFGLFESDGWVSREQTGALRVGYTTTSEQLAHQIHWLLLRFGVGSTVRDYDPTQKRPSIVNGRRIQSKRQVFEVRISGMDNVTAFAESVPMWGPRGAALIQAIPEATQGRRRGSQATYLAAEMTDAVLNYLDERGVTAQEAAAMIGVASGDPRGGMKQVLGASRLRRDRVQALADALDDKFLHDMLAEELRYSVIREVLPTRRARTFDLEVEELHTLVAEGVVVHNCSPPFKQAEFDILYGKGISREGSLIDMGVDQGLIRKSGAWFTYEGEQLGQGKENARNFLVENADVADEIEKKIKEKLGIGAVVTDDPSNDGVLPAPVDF
Put plainly: Fluorescence Cell-Free Homogeneous Dose Retest to Identify Inhibitors of RecA-Intein Splicing Activity. [Related pubchem assays (depositor defined):AID2097, AID2223, AID489010, AID492950]. The class given is functional.

Assay [3] deals with T4, Replicative DNA helicase DnaB (Mycobacterium tuberculosis, UniProt P9WMR3).
T4 sequence (P9WMR3 whole entry): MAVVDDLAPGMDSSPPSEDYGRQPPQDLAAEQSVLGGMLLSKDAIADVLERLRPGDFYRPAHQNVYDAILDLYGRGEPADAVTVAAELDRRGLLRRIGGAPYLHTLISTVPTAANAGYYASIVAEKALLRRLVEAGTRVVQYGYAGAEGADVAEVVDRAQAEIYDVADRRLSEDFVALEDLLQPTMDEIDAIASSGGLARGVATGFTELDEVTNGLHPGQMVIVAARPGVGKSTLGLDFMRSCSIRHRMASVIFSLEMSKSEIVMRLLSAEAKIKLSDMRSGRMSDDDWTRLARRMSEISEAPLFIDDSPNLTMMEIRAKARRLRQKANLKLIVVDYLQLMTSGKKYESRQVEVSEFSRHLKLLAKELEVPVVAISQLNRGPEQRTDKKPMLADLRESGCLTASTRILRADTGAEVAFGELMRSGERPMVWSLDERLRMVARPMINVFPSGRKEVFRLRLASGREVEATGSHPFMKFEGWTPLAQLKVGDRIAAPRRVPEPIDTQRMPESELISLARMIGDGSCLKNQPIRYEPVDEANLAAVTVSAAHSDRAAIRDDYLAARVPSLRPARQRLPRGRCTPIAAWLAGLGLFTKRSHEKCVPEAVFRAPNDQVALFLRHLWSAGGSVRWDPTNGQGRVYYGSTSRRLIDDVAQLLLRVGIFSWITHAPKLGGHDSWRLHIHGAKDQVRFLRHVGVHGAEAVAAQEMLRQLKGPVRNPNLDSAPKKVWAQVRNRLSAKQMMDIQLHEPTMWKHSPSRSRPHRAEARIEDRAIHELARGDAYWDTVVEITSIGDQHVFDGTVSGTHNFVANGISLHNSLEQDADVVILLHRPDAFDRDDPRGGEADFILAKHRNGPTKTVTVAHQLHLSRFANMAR
Description: DnaB intein splicing inhibitors, dose response, biochemical, cell-free fluorescence (AID 449749). The assay is classed as functional.

With `CC(=O)c1ccc(NC(=O)CN2C(=O)/C(=C/C=C/c3ccccc3)SC2=S)cc1`, the EC50 at Streptokinase A and in the assay on Streptococcus was > 150 µM (not active) in each case.

As to `S=C1NCCN1` [ETHYLENE THIOUREA], the EC50 in assay [1] is recorded as > 195 µM (not active).

`N#Cc1c(NC(=O)CSc2nnc(Cc3ccccc3)[nH]2)oc(-c2ccccc2)c1-c1ccccc1`: the EC50 at Streptokinase A is 4.54 µM (active).

Regarding `CCN1C(=O)[C@H]2[C@@H](c3ccc(C)cc3)N3C(=O)N(c4ccc(C)cc4)C(=O)[C@@]3(C)[C@H]2C1=O`, the EC50 in assay [1] is on record as > 195 µM (not active).

Consider `O=C(Nc1ccc2c(c1)N(S(=O)(=O)c1cccs1)CCC2)c1c(F)cccc1Cl`, for which the EC50 (in assay [2]; at Streptokinase A; in the assay with Streptococcus) was > 150 µM (not active) throughout.

In the case of `O=C(Nc1ccc2c(c1)ncn2C1CCCCC1)c1ccco1`, the EC50 in assay [1] is given as > 195 µM (not active).

On to `COc1cc(OC)cc(C(=O)N/N=C(\C)CC(=O)Nc2ccccn2)c1`, for which the EC50 on Protein RecA is 7.81 µM (active). Also, the half-maximal activity concentration (AC50) in assay [3] was 13.1 µM (active).

On to `CN1CCN(C(=O)c2cc([N+](=O)[O-])cc([N+](=O)[O-])c2)CC1`, for which, in assay [1], the EC50 is > 195 µM (not active).

Turning to `Cc1cc(C)n(-c2nc3ccccc3s2)n1`, the EC50 in assay [1] is listed as > 195 µM (not active).

Take `CCCCNc1c(-c2ccc(-c3ccc(C(C)=O)cc3)c(OC)c2)nc2cnccn12`: the EC50 in assay [2] was 5.22 µM (active); at Streptokinase A, 114 µM (inconclusive); in the assay with Streptococcus, 21.1 µM (active).

Take `O=C(Nc1cccc(-c2ccc(F)cc2)c1)C1CCCN(C(=O)c2cscn2)C1` (configuration not stated): in assay [1], the EC50 is on record as > 195 µM (not active).

Take `O=C(Nc1ccc2[nH]ncc2c1)c1ccccc1Cl`: the EC50 in assay [1] was > 195 µM (not active).

`COc1c([N+](=O)[O-])c(=O)oc2ccccc12`: the EC50 in assay [1] is given as > 195 µM (not active).

On to `COc1ccc(N(CC(=O)Nc2cccc(C)c2)S(=O)(=O)c2c(C)noc2C)cc1`, for which, in assay [1], the EC50 was > 195 µM (not active).

With `COC(=O)c1c(N2C(=O)[C@H]3[C@@H](C2=O)[C@]2(C(=O)Nc4c(C)cccc42)N2CCC[C@@H]32)sc(C)c1C`, the EC50 in assay [1] is > 195 µM (not active).

As to `CCN(C1CCS(=O)(=O)C1)S(=O)(=O)c1cccs1` (configuration not stated), the EC50 in assay [1] is listed as > 195 µM (not active).

As for `O=C(Nc1nc(N2C(=O)c3ccccc3C2=O)n(-c2ccccc2)n1)c1ccc(Cl)cc1`, the results for the EC50 (in assay [2]; on Streptokinase A; in the assay with Streptococcus) were 8.84 µM (active), > 150 µM (not active) and 22.9 µM (active), respectively.

Turning to `Cc1n[nH]c(O)c1C(c1ccc(F)cc1)c1c(C)n[nH]c1O`, on Protein RecA, the EC50 was 0.291 µM (active). Besides, the AC50 in assay [3] was 0.628 µM (active).

Turning to `Cc1n[nH]c(O)c1C(c1ccc2c(c1)OCO2)c1c(C)n[nH]c1O`, the EC50 at Protein RecA was 0.189 µM (active). In addition, the AC50 in assay [3] is 0.324 µM (active).

For the molecule `NC(=O)NC(=O)CSc1nc2cc([N+](=O)[O-])ccc2n1-c1cccc(C(F)(F)F)c1`, the results for the EC50 (in assay [2]; on Streptokinase A; in the assay on Streptococcus) were 0.301 µM (active), > 150 µM (not active) and 19.2 µM (active), respectively.

Regarding `C=CCN1C(=O)NC(=O)/C(=C(/C)Nc2ccc(N(CC)CC)cc2)C1=O`, the EC50 in assay [2] was 5.15 µM (active); on Streptokinase A, > 150 µM (not active); with Streptococcus it was 14 µM (active).

Regarding `COc1ccc(NC(=O)Nc2c(O)ccc3ccccc23)cc1`, on Protein RecA, the EC50 was 1.49 µM (active). For the same molecule, the AC50 in assay [3] is > 380 µM (inactive).

With `O=C(C[n+]1ccc2ccccc2c1)Nc1cc(C(F)(F)F)ccc1Cl`, the EC50 (in assay [2]; at Streptokinase A; with Streptococcus) was > 150 µM (not active) throughout.

Turning to `COc1ccc2[nH]c(CN3CCC(CO)(CCOc4ccccc4)CC3)c(C)c2c1`, at Protein RecA, the EC50 was > 380 µM (inactive). For the same molecule, the AC50 in assay [3] is > 380 µM (inactive).

For `CC(C)(C)c1ccc(C(=O)Nc2ccc(F)cc2)s1`, the EC50 (in assay [2]; at Streptokinase A; with Streptococcus) was > 150 µM (not active) in each case.

For `CCCCN1C(=O)NC(=O)/C(=C(/CC)Nc2ccc3c(c2)CCC3)C1=O`, the EC50 was 15.9 µM (active) in assay [2], 74.1 µM (active) on Streptokinase A and > 150 µM (not active) in the assay with Streptococcus.

Regarding `COc1cc(/C=N/NC(=O)c2nnn(-c3nonc3N)c2C(C)C)ccc1OCc1ccc(F)cc1`, the EC50 is 8.61 µM (active) in assay [2], 13.4 µM (active) on Streptokinase A and 47 µM (active) in the assay on Streptococcus.

Consider `CC(=O)N1c2ccc(S(=O)(=O)N3CCC(C(=O)Nc4cc(C)ccn4)CC3)cc2CC1C` (configuration not stated), for which the EC50 (in assay [2]; on Streptokinase A; with Streptococcus) was > 150 µM (not active) throughout.

Take `CCOc1ccc(C(=O)NC(=S)Nc2ccc(N3CCOCC3)c(Cl)c2)cc1[N+](=O)[O-]`: the EC50 in assay [2] was 0.724 µM (active); at Streptokinase A it was > 150 µM (not active); with Streptococcus, 21.4 µM (active).

As to `CCc1ccc(N(CC(=O)NC2CC2)S(=O)(=O)c2ccc(C)cc2)cc1`, the concentration giving a half-maximal response (EC50) (in assay [2]; on Streptokinase A; in the assay with Streptococcus) was > 150 µM (not active) each time.

Take `CN(C)c1ccc(C(=O)n2nnc3ccccc32)cc1`: the EC50 on Protein RecA is 9.71 µM (active). In assay [3], the AC50 was 7.46 µM (active).
